Legend:
Phosphodiesterase 2(h) = target: T1, Phosphodiesterase 2(h) (Homo sapiens, UniProt O00408); assay: Phosphodiesterase 2(h) enzyme assay; type: biochemical; settings: Phosphodiesterase 2(h)
T1 construct: differentiated U-; endogenous in cells; host or cells: differentiated U-937 cells

Tyrosine hydroxylase = target: T2, Tyrosine hydroxylase (Rattus norvegicus, UniProt P04177); assay: Tyrosine hydroxylase enzyme assay; type: biochemical; settings: Tyrosine hydroxylase
T2 construct: rat striatum; from tissue; host or cells: rat striatum

H3 = H3 binding assay; parameters: species or system rat
GABA transaminase = target: T3, GABA transaminase (Rattus norvegicus, UniProt P50554); assay: GABA transaminase enzyme assay; type: biochemical; settings: GABA transaminase
T3 construct: rat brain; from tissue; host or cells: rat brain

DA transporter(h) = target: T4, DA transporter(h) (Homo sapiens, UniProt Q01959); assay: DA transporter(h) binding assay
T4 construct: expressed in transfected cells; host or cells: CHO cells

CRF1 = target: T5, CRF1 (Rattus norvegicus, UniProt P35353); assay: CRF1 binding assay; settings: Hill coefficient, reference compound
T5 construct: from tissue; host or cells: rat pituitary gland

[1] = target: Ca^2+ channel (L, verapamil site) (phenylalkylamines); assay: Ca^2+ channel (L, verapamil site) binding assay; parameters: species or system rat
GABA (non-selective) = type: binding, rat; settings: Hill coefficient, reference compound
NK3(h) = target: T6, NK3(h) (Homo sapiens, UniProt P29371); assay: NK3(h) binding assay; settings: Hill coefficient, reference compound
T6 construct: expressed in transfected cells; host or cells: CHO cells

β1(h) = target: T7, β1(h) (Homo sapiens, UniProt P08588); assay: β1(h) binding assay; settings: Hill coefficient, reference compound
T7 construct: expressed in transfected cells; host or cells: HEK-293 cells

M (non-selective) = M (non-selective) binding assay; parameters: species or system rat
H2(h) = target: T8, H2(h) (Homo sapiens, UniProt P25021); assay: H2(h) binding assay; settings: Hill coefficient, reference compound
T8 construct: expressed in transfected cells; host or cells: CHO cells

BZD (central) = BZD (central) binding assay; parameters: species or system rat; settings: Hill coefficient, reference compound
[2] = target: Ca^2+ channel (L, diltiazem site) (benzothiazepines) (Rattus norvegicus, UniProt P22002); assay: Ca^2+ channel (L, diltiazem site) binding assay
σ (non-selective) = σ (non-selective) binding assay; parameters: species or system rat
Choline transporter = target: T9, Choline transporter (Rattus norvegicus, UniProt Q9JMD7); assay: Choline transporter binding assay; settings: reference compound
T9 construct: rat striatum; from tissue; host or cells: rat striatum
T9 sequence (Q9JMD7 1-580): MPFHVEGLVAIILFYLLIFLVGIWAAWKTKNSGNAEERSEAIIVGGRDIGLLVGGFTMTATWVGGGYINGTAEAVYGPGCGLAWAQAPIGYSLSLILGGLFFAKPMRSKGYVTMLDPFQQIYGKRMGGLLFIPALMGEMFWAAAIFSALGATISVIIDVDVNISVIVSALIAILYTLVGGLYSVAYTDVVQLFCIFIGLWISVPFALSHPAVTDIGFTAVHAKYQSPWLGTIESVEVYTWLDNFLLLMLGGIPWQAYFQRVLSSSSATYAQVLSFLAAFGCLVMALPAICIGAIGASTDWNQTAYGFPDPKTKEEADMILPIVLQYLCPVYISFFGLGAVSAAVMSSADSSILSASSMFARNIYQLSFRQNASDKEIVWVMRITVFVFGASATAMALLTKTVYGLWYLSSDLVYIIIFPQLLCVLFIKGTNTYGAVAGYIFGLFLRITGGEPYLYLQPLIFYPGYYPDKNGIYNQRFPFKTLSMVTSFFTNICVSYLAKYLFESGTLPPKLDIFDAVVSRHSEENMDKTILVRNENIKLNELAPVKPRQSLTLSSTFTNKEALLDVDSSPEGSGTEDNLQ

5-HT transporter(h) = target: T10, 5-HT transporter(h) (Homo sapiens, UniProt P31645); assay: 5-HT transporter(h) binding assay; settings: Hill coefficient, reference compound
T10 construct: expressed in transfected cells; host or cells: HEK-293 cells

Androgen(h) (AR) = target: T11, Androgen(h) (AR) (Homo sapiens, UniProt P10275, T878A); assay: Androgen(h) (AR) binding assay
T11 construct: LNCaP cells; endogenous in cells; host or cells: LNCaP cells (cytosol)

[3] = target: N (neuronal) (α-BGTX-insensitive) (Rattus norvegicus, UniProt P09483+P12390); assay: N (neuronal) (α-BGTX-insensitive) binding assay; settings: Hill coefficient, reference compound
ATPase (Na^+/K^+) = target: T12, ATPase (Na^+/K^+) (Canis lupus familiaris, UniProt P50997); assay: ATPase (Na^+/K^+) enzyme assay; type: biochemical, dog; settings: ATPase (Na^+/K^+)
T12 construct: dog kidney; from tissue; host or cells: dog kidney

Cl-channel = Cl-channel binding assay; parameters: species or system rat; settings: Hill coefficient, reference compound
NE transporter(h) = target: T13, NE transporter(h) (Homo sapiens, UniProt P23975); assay: NE transporter(h) binding assay; settings: Hill coefficient, reference compound
T13 construct: expressed in transfected cells; host or cells: MDCK cells

AT2(h) = target: T14, AT2(h) (Homo sapiens, UniProt P50052); assay: AT2(h) binding assay; settings: Hill coefficient, reference compound
T14 construct: expressed in transfected cells; host or cells: Hela cells

AT1(h) = target: T15, AT1(h) (Homo sapiens, UniProt P30556); assay: AT1(h) binding assay; settings: Hill coefficient, reference compound
T15 construct: expressed in transfected cells; host or cells: CHO cells

5-HT (non-selective) = 5-HT (non-selective) binding assay; parameters: species or system rat; settings: Hill coefficient, reference compound
D2S(h) = target: T16, D2S(h) (Homo sapiens, UniProt P14416); assay: biochemical; type: binding
T16 construct: expressed in transfected cells; host or cells: CHO cells

V2(h) = target: T17, V2(h) (Homo sapiens, UniProt P30518); assay: V2(h) binding assay
T17 construct: expressed in transfected cells; host or cells: CHO cells

B2(h) = target: T18, B2(h) (Homo sapiens, UniProt P30411); assay: B2(h) binding assay
T18 construct: expressed in transfected cells; host or cells: CHO cells

Y (non-selective) = Y (non-selective) binding assay; parameters: species or system rat; settings: reference compound
TRH = TRH binding assay; parameters: species or system rat; settings: reference compound
NK2(h) = target: T19, NK2(h) (Homo sapiens, UniProt P21452); assay: NK2(h) binding assay
T19 construct: expressed in transfected cells; host or cells: CHO cells

NK1(h) = target: T20, NK1(h) (Homo sapiens, UniProt P25103); assay: NK1(h) binding assay; settings: Hill coefficient, reference compound
T20 construct: NK1(h); U-373MG cells; [Sar^9,Met(O2)^11]-SP; Heuillet et al. (1993); endogenous in cells; host or cells: U-373MG cells

ETA(h) = target: T21, ETA(h) (Homo sapiens, UniProt P25101); assay: ETA(h) binding assay
T21 construct: expressed in transfected cells; host or cells: CHO cells

ETB(h) = target: T22, ETB(h) (Homo sapiens, UniProt P24530); assay: ETB(h) binding assay; settings: Hill coefficient, reference compound
T22 construct: expressed in transfected cells; host or cells: CHO cells

K^+V channel = K^+V channel binding assay; parameters: species or system rat

T1 sequence (O00408 whole entry): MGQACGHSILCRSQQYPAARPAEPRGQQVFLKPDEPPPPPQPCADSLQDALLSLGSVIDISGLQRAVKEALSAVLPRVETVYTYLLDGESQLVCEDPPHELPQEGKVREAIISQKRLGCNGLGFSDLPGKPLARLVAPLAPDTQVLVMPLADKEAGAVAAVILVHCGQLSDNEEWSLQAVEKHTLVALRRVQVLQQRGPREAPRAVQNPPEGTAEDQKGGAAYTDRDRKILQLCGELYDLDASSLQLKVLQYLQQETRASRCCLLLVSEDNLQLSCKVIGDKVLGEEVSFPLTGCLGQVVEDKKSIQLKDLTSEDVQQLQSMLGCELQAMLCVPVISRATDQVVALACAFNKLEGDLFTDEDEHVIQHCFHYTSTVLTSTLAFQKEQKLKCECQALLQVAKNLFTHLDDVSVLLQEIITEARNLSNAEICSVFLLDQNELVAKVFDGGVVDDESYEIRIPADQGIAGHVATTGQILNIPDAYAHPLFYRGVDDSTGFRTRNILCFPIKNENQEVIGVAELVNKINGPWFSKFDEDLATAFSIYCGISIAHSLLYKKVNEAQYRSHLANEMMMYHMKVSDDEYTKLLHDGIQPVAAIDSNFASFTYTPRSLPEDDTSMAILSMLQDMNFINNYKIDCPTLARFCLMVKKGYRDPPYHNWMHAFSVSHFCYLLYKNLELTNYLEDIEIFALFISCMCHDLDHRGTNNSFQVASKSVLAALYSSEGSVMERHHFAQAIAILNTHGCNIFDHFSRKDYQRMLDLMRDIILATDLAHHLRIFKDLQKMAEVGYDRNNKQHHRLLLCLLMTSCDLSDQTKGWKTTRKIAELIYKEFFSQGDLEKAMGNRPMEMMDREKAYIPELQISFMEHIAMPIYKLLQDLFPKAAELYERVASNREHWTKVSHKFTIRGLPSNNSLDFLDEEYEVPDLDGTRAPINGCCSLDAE
T2 sequence (P04177 whole entry): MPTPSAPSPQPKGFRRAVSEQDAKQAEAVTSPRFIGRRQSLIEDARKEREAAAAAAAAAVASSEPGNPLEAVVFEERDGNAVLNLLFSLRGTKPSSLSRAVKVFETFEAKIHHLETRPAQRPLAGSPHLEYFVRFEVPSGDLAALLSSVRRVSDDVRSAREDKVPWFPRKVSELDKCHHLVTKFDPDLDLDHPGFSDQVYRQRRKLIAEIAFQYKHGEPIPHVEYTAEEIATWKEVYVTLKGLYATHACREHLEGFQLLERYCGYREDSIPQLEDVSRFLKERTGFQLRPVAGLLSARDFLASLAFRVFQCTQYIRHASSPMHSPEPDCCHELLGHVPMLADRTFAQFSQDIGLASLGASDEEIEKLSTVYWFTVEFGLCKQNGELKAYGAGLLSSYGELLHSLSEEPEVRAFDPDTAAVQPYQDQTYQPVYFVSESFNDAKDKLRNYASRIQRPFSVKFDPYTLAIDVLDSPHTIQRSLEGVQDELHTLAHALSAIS
T3 sequence (P50554 28-500): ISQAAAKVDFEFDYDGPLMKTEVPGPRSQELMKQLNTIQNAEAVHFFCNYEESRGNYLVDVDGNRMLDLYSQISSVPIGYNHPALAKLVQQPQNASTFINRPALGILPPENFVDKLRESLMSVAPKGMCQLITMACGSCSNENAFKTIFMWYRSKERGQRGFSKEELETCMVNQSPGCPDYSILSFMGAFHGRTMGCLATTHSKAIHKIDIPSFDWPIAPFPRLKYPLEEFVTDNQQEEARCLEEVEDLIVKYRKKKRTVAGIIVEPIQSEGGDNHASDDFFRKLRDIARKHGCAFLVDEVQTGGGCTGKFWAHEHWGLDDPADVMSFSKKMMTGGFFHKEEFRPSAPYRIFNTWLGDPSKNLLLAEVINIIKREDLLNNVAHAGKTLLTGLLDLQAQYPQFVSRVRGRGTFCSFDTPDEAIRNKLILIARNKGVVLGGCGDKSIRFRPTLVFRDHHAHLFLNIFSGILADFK
T14 sequence (P50052 whole entry): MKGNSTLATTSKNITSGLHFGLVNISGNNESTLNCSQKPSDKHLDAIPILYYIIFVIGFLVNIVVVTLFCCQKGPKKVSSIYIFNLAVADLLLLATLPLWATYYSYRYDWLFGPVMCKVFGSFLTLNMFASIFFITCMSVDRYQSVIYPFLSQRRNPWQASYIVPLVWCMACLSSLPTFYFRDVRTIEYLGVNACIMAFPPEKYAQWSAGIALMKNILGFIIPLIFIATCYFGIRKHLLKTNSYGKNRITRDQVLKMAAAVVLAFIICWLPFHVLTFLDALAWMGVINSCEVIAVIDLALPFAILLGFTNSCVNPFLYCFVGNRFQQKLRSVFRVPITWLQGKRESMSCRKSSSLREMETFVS
T19 sequence (P21452 whole entry): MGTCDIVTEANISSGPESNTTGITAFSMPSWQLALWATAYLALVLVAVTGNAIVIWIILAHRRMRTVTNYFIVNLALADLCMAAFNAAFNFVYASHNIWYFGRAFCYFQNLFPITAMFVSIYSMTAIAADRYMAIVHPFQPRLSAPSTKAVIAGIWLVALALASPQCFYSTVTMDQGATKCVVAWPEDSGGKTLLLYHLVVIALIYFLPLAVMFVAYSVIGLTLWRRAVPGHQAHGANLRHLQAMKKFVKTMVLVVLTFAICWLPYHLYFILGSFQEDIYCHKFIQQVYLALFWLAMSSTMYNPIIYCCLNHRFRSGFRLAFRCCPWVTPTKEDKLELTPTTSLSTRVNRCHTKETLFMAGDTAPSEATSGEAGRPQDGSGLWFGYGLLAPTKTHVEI
T7 sequence (P08588 whole entry): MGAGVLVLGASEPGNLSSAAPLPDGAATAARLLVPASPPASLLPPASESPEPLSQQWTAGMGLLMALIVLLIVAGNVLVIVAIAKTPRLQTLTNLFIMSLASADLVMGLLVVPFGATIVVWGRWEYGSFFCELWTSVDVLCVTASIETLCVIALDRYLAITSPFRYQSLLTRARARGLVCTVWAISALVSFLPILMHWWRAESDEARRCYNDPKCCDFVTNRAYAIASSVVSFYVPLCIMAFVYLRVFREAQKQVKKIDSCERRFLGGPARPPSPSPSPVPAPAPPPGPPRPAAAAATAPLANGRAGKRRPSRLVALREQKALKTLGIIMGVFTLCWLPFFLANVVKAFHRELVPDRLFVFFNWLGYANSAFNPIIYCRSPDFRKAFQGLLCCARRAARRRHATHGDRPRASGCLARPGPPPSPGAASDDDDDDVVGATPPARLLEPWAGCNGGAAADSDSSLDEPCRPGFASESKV
T21 sequence (P25101 21-427): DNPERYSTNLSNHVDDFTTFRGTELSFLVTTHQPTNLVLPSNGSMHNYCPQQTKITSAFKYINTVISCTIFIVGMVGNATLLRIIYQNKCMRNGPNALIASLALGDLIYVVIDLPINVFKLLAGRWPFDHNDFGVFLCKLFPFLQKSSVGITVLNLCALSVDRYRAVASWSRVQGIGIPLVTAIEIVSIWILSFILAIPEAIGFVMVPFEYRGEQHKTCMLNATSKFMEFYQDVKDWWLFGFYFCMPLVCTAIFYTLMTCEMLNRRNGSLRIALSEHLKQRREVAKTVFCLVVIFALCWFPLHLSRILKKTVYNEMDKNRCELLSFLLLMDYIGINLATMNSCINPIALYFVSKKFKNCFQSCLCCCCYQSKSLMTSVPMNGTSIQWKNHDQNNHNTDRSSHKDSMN
T6 sequence (P29371 whole entry): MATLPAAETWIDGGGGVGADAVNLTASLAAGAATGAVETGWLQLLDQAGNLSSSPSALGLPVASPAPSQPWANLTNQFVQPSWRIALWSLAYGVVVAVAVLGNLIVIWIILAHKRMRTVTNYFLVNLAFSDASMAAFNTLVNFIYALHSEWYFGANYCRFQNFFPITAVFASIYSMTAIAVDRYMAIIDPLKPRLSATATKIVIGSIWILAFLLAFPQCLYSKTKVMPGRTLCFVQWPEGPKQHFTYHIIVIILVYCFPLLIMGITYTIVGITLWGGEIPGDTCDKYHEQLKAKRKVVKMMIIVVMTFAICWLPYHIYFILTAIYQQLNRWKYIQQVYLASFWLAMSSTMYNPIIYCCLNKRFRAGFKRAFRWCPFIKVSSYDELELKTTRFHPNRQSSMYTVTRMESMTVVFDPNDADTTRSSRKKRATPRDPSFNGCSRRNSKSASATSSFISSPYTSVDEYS
T15 sequence (P30556 whole entry): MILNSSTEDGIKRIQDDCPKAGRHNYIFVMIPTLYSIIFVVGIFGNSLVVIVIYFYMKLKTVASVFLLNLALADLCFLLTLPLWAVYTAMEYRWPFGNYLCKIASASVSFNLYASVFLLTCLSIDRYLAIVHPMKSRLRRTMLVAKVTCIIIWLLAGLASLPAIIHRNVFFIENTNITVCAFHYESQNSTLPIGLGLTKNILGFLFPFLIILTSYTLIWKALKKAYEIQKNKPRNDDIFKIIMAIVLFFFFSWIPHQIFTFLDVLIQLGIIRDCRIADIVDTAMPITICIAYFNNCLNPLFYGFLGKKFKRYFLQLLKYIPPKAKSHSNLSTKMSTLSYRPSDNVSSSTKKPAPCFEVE
T8 sequence (P25021 whole entry): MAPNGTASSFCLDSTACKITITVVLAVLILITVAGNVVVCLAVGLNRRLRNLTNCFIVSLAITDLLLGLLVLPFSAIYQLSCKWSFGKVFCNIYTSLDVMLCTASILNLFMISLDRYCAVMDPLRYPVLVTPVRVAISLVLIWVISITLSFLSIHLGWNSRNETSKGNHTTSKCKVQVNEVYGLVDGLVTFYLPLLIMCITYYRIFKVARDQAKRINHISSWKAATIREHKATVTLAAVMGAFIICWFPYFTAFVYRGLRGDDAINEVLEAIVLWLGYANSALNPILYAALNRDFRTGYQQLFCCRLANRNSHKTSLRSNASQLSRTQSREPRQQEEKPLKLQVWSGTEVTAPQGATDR

## CCCCCC[C@@H]([C@@H](C)O)n1cnc2c(N)ncnc21 (racemic) [EHNA]
Phosphodiesterase 2(h); Hill coefficient
  nH: 0.4
Phosphodiesterase 2(h); reference compound
  IC50: 4.1 µM

## N[C@@H](Cc1ccc(O)c(I)c1)C(=O)O [3-iodo L-tyrosine]
Tyrosine hydroxylase; Hill coefficient
  nH: 1.1
Tyrosine hydroxylase; reference compound
  IC50: 0.99 µM

## C[C@@H](N)Cc1cnc[nH]1 [(R)a-Me-histamine, (R)α-Me-histamine, reference compound]
H3
  nH: 1.0

## NOCC(=O)O [AoAA]
GABA transaminase; Hill coefficient
  nH: 1.1
GABA transaminase; reference compound
  IC50: 0.21 µM

## c1ccc2sc(C3(N4CCCCC4)CCCCC3)cc2c1 [BTCP, reference compound]
DA transporter(h)
  nH: 0.5

## CC[C@H](C)[C@H](NC(=O)[C@@H](NC(=O)[C@H](CCC(=O)O)NC(=O)[C@H](CCSC)NC(=O)[C@H](CC(C)C)NC(=O)[C@H](CCCCN)NC(=O)[C@H](CCCNC(=N)N)NC(=O)[C@H](CC(N)=O)NC(=O)[C@H](CO)NC(=O)[C@H](Cc1c[nH]cn1)NC(=O)[C@H](C)NC(=O)[C@H](CCC(N)=O)NC(=O)[C@H](CCC(N)=O)NC(=O)[C@H](C)NC(=O)[C@H](CC(C)C)NC(=O)[C@H](CCC(N)=O)NC(=O)[C@H](CCC(=O)O)NC(=O)[C@H](C)NC(=O)[C@H](CCCNC(=N)N)NC(=O)[C@H](C)NC(=O)[C@H](CCSC)NC(=O)[C@H](CCC(=O)O)NC(=O)[C@H](CC(C)C)NC(=O)[C@@H](NC(=O)[C@H](CCC(=O)O)NC(=O)[C@H](CCCNC(=N)N)NC(=O)[C@H](CC(C)C)NC(=O)[C@H](CC(C)C)NC(=O)[C@H](Cc1c[nH]cn1)NC(=O)[C@H](Cc1ccccc1)NC(=O)[C@@H](NC(=O)[C@H](CC(C)C)NC(=O)[C@H](CC(=O)O)NC(=O)[C@H](CC(C)C)NC(=O)[C@H](CO)NC(=O)[C@@H](NC(=O)[C@@H]1CCCN1C(=O)[C@@H]1CCCN1C(=O)[C@H](CCC(=O)O)NC(=O)[C@H](CCC(=O)O)NC(=O)[C@@H](N)CO)[C@@H](C)CC)[C@@H](C)O)C(C)C)[C@@H](C)CC)C(N)=O [CRF, reference compound]
CRF1
  nH: 0.6

## COc1ccc(CCN(C)CCCC(C#N)(c2cc(OC)c(OC)c(OC)c2)C(C)C)cc1OC (stereo not shown) [D 600]
[1]
  Ki: 0.00084 µM
  nH: 0.6

## NCCCC(=O)O [GAGA, GABA, reference compound]
GABA (non-selective)
  nH: 1.3

## CC[C@H](NC(=O)c1c(C)c(-c2ccccc2)nc2ccccc12)c1ccccc1 [SB 222200, reference compound]
NK3(h)
  nH: 1.1

## CC(C)NCC(O)COc1ccc(CC(N)=O)cc1 (stereo not shown) [atenolol, reference compound]
β1(h)
  nH: 0.7

## CN1[C@@H]2CC[C@H]1C[C@@H](OC(=O)C(CO)c1ccccc1)C2 (stereo partly shown) [atropine, reference compound]
M (non-selective)
  nH: 1.2

## CN/C(=N/CCSCc1nc[nH]c1C)NC#N [cimetidine, reference compound]
H2(h)
  nH: 0.9

## CN1C(=O)CN=C(c2ccccc2)c2cc(Cl)ccc21 [diazepam, reference compound]
BZD (central)
  nH: 1.2

## COc1ccc([C@@H]2Sc3ccccc3N(CCN(C)C)C(=O)[C@@H]2OC(C)=O)cc1 [diltiazem, reference compound]
[2]
  nH: 0.9

## O=C(CCCN1CCC(O)(c2ccc(Cl)cc2)CC1)c1ccc(F)cc1 [haloperidol, reference compound]
σ (non-selective)
  nH: 0.6

## C[N+]1(C)CCOC(O)(c2ccc(-c3ccc(C4(O)C[N+](C)(C)CCO4)cc3)cc2)C1.[Br-].[Br-] (stereo not shown) [hemicholinium-3]
Choline transporter; Hill coefficient
  nH: 0.7
Choline transporter
  IC50: 0.008 µM
Choline transporter; Cheng Prusoff
  Ki: 0.0055 µM

## CN(C)CCCN1c2ccccc2CCc2ccccc21 [imipramine, reference compound]
5-HT transporter(h)
  nH: 1.0

## C[C@]1(O)CC[C@H]2[C@@H]3CCC4=CC(=O)CCC4=C3C=C[C@@]21C [methyltrienolone, reference compound]
Androgen(h) (AR)
  nH: 1.5

## CN1CCCC1c1cccnc1 (stereo not shown) [nicotine, reference compound]
[3]
  nH: 1.1

## C[C@@H]1O[C@@H](O[C@H]2C[C@@H](O)[C@]3(CO)[C@H]4[C@H](O)C[C@]5(C)[C@@H](C6=CC(=O)OC6)CC[C@]5(O)[C@@H]4CC[C@]3(O)C2)[C@H](O)[C@H](O)[C@H]1O [ouabain]
ATPase (Na^+/K^+); Hill coefficient
  nH: 1.2
ATPase (Na^+/K^+); reference compound
  IC50: 0.92 µM

## C=C(C)[C@@H]1[C@H]2OC(=O)[C@@H]1[C@]1(O)C[C@H]3O[C@]34C(=O)O[C@H]2[C@]14C [picrotoxinin, reference compound]
Cl-channel
  nH: 0.9

## CNCCCC1c2ccccc2C=Cc2ccccc21 [protriptyline, reference compound]
NE transporter(h)
  nH: 1.7

## CNCC(=O)N[C@@H](CCCN=C(N)N)C(=O)N[C@H](C(=O)N[C@@H](Cc1ccc(O)cc1)C(=O)N[C@H](C(=O)N[C@@H](Cc1cnc[nH]1)C(=O)N1CCC[C@H]1C(=O)N[C@@H](C)C(=O)O)C(C)C)C(C)C [saralasin, reference compound]
AT2(h)
  nH: 0.8
AT1(h)
  nH: 1.1

## NCCc1c[nH]c2ccc(O)cc12 [serotonin, reference compound]
5-HT (non-selective)
  nH: 0.9

## (+)butaclamol [reference compound]
D2S(h)
  nH: 1.2

## AVP [reference compound]
V2(h)
  nH: 0.9

## NPC 567 [reference compound]
B2(h)
  nH: 0.6

## NPY
Y (non-selective); Hill coefficient
  nH: 1.3
Y (non-selective)
  IC50: 0.00099 µM

## TRH
TRH; Hill coefficient
  nH: 0.9
TRH
  IC50: 0.049 µM
TRH; Cheng Prusoff
  Ki: 0.03 µM

## [N1e^10]-NKA(4-10) [reference compound]
NK2(h)
  nH: 0.7

## [Sar^9,Met(O2)^11]-SP [reference compound]
NK1(h)
  nH: 0.9

## endothelin-1 [endothelia-1, reference compound]
ETA(h)
  nH: 1.1

## endothelin-3 [endothelia-3, reference compound]
ETB(h)
  nH: 2.4

## α-dendrotoxin
K^+V channel
  Ki: 0.0011 µM
  nH: 3.1

From patent US20090264384A1, “INDOLE, BENZIMIDAZOLE, AND BENZOLACTAM BORONIC ACID COMPOUNDS, ANALOGS THEREOF AND METHODS OF USE THEREOF” (Nuada, Inc., priority 2004, published 2009)
